Measured values published in the supplement of paper PMC10307832.

What was measured:
Test in all cases: relative viability (nuclei count vs DMSO), 5 days (fraction); higher = more cells survive
[1] = compound: CCC1=CN=CN=C1N2CCN(CC2)CC3=NC4=C(N3)C=C(C=C4)C(F)(F)F + O=C(c1cc(Cc2n[nH]c(=O)c3ccccc23)ccc1F)N1CCN(C(=O)C2CC2)CC1 [Olaparib] (partner 8 µM)
How it was run: (§1)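 After 5 days of treatment, lung cancer cells in 1536-well plates were fixed and stained in a single step (final 0.05% Triton X-100, 1% formaldehyde, 1 ug/ml Hoechst) and their nuclei counted on 4× images. Treatment had been applied by pin tool the day after seeding as one drug alone or as a fixed anchor-drug dose with five library-drug doses (not always all listed) in √10 steps. Relative viability is the nuclei count of treated wells divided by that of vehicle wells, and values are medians of duplicate plates.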

[2] = compound: CCn1c(-c2nonc2N)nc2cnc(Oc3cccc(NC(=O)c4ccc(OCCN5CCOCC5)cc4)c3)cc21 + CC(=O)c1c(C)c2cnc(Nc3ccc(N4CCNCC4)cn3)nc2n(C2CCCC2)c1=O [Palbociclib] (partner 0.5 µM)
How it was run: as §1

[3] = compound: CCn1c(-c2nonc2N)nc2cnc(Oc3cccc(NC(=O)c4ccc(OCCN5CCOCC5)cc4)c3)cc21 + COc1cc2c(Oc3ccc(NC(=O)C4(C(=O)Nc5ccc(F)cc5)CC4)cc3F)ccnc2cc1OCCCN1CCOCC1 [Foretinib] (partner 0.25 µM)
How it was run: as §1

Mirin + Decitabine = compound: N=C1NC(=O)/C(=C/c2ccc(O)cc2)S1 [Mirin] + Nc1ncn([C@H]2C[C@H](O)[C@@H](CO)O2)c(=O)n1 [Decitabine] (partner 2 µM)
How it was run: as §1

Row | Cell Line | relative viability ([1]; first compound 0.04 µM) | relative viability ([1]; first compound 0.1265 µM) | relative viability ([1]; first compound 0.4 µM) | relative viability ([1]; first compound 1.265 µM) | relative viability ([1]; first compound 4 µM) | relative viability ([2]; first compound 0.04 µM) | relative viability ([2]; first compound 0.1265 µM) | relative viability ([2]; first compound 0.4 µM) | relative viability ([2]; first compound 1.265 µM) | relative viability ([2]; first compound 4 µM) | relative viability ([3]; first compound 0.04 µM) | relative viability ([3]; first compound 0.1265 µM) | relative viability ([3]; first compound 0.4 µM) | relative viability ([3]; first compound 1.265 µM) | relative viability ([3]; first compound 4 µM) | relative viability (Mirin + Decitabine; first compound 0.25 µM) | relative viability (Mirin + Decitabine; first compound 0.7906 µM) | relative viability (Mirin + Decitabine; first compound 2.5 µM) | relative viability (Mirin + Decitabine; first compound 7.906 µM) | relative viability (Mirin + Decitabine; first compound 25 µM)
1 | NCI-H2085 | 0.717 | 0.692 | 0.728 | 0.777 | 0.72 | 0.514 | 0.44 | 0.402 | 0.359 | 0.39 | 1.2 | 1.15 | 0.93 | 0.858 | 0.806 | 0.562 | 0.537 | 0.546 | 0.553 | 0.604
2 | NCI-H2087 | 0.791 | 0.542 | 0.623 | 0.522 | 0.423 | 0.362 | 0.218 | 0.336 | 0.2 | 0.228 | 1.1 | 0.911 | 1.01 | 0.876 | 0.695 | 0.245 | 0.215 | 0.286 | 0.24 | 0.208
3 | NCI-H2126 | 0.913 | 0.877 | 0.856 | 0.927 | 0.901 | 0.362 | 0.338 | 0.355 | 0.361 | 0.325 | 1.22 | 1.08 | – | – | 1.29 | 0.556 | 0.534 | 0.586 | 0.557 | 0.461
4 | NCI-H2170 | 0.632 | 0.574 | 0.571 | 0.537 | 0.601 | 0.434 | 0.405 | 0.378 | 0.408 | 0.407 | 1 | 0.99 | 0.997 | 0.939 | 0.848 | 0.462 | 0.483 | 0.45 | 0.415 | 0.411
5 | NCI-H2342 | 0.51 | 0.402 | 0.384 | 0.275 | 0.34 | 0.467 | 0.52 | 0.554 | 0.52 | 0.553 | 1.16 | 1.18 | 1.01 | 0.771 | 0.917 | 0.77 | 0.775 | 0.684 | – | 0.633
6 | NCI-H2347 | 0.6 | 0.654 | 0.603 | 0.59 | 0.575 | 0.432 | 0.455 | 0.385 | 0.376 | 0.381 | 1.08 | 1.27 | 1.26 | 0.459 | 0.585 | 0.595 | 0.599 | 0.604 | 0.604 | 0.611
7 | NCI-H2405 | 0.898 | 0.874 | 0.821 | – | 0.919 | 0.572 | 0.361 | 0.304 | 0.234 | 0.222 | 1.23 | 0.999 | 0.485 | 0.342 | 0.384 | 0.72 | – | 0.691 | 0.725 | 0.708
8 | NCI-H3122 | 0.663 | 0.55 | 0.551 | 0.54 | 0.56 | 0.209 | 0.182 | 0.184 | 0.19 | 0.19 | 1.06 | 0.969 | 0.935 | 0.972 | 0.832 | 0.41 | 0.431 | 0.432 | 0.372 | 0.353
